In ChEMBL document CHEMBL1201862, “PubChem BioAssay data set” (2004):
Values belong to the molecule of their own block, whether it stands above or below them. The source made the active and inactive calls.

Columns and labels:
Assay type in all cases: functional
[1] = biological target: T1, Sentrin-specific protease 8 (Homo sapiens, UniProt Q96LD8)
T1 sequence (Q96LD8 whole entry): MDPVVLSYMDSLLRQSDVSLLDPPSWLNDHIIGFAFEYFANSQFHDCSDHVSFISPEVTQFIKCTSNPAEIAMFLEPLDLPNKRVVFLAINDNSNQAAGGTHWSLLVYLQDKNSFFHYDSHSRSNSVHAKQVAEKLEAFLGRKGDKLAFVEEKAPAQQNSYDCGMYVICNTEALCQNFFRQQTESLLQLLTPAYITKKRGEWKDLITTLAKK

[2] = biological target: T1, Sentrin-specific protease 8; remark: listed apart in the source
[3] = biological target: T2, Caspase-3 (Homo sapiens, UniProt P42574);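 also: Dose-response selectivity test against caspase-3 for candidate inhibitors of sentrin-specific proteases (SENPs)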
T2 sequence (P42574 whole entry): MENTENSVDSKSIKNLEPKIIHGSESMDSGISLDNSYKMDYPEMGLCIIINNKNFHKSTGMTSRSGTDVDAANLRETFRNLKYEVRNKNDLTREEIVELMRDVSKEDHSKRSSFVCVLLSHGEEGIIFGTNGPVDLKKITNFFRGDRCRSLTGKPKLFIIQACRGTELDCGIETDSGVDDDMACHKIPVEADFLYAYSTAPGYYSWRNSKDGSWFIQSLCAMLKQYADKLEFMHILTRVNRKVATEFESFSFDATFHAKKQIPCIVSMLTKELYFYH

[4] = biological target: Serine/threonine-protein kinase 17A (Homo sapiens, UniProt Q9UEE5)
[5] = biological target: Casein kinase I isoform gamma-1 (Homo sapiens, UniProt Q9HCP0);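 also: measured as the CSNK1G1 member of a kinome profiling panel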
Casein kinase I isoform gamma-1, sequence (Q9HCP0 whole entry, canonical isoform): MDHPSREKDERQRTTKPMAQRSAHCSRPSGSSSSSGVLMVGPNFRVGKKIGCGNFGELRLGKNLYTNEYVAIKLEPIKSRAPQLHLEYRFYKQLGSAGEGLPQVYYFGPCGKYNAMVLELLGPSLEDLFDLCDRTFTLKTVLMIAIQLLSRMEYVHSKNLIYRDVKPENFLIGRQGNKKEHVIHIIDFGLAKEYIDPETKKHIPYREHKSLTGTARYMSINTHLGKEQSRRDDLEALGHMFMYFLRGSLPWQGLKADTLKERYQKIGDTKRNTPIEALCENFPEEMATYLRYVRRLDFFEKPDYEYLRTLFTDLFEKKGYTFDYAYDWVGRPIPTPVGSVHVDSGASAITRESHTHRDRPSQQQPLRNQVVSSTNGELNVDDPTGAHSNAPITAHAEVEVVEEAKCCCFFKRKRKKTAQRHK

[6] = biological target: Mitogen-activated protein kinase 1 (Homo sapiens, UniProt P28482)
[7] = biological target: MAP kinase-interacting serine/threonine-protein kinase 2 (Homo sapiens, UniProt Q9HBH9)
[8] = biological target: Ephrin type-A receptor 2 (Homo sapiens, UniProt P29317);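 also: EPHA2 tested as one member of a kinome-wide kinase panel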
Ephrin type-A receptor 2, sequence (P29317 whole entry): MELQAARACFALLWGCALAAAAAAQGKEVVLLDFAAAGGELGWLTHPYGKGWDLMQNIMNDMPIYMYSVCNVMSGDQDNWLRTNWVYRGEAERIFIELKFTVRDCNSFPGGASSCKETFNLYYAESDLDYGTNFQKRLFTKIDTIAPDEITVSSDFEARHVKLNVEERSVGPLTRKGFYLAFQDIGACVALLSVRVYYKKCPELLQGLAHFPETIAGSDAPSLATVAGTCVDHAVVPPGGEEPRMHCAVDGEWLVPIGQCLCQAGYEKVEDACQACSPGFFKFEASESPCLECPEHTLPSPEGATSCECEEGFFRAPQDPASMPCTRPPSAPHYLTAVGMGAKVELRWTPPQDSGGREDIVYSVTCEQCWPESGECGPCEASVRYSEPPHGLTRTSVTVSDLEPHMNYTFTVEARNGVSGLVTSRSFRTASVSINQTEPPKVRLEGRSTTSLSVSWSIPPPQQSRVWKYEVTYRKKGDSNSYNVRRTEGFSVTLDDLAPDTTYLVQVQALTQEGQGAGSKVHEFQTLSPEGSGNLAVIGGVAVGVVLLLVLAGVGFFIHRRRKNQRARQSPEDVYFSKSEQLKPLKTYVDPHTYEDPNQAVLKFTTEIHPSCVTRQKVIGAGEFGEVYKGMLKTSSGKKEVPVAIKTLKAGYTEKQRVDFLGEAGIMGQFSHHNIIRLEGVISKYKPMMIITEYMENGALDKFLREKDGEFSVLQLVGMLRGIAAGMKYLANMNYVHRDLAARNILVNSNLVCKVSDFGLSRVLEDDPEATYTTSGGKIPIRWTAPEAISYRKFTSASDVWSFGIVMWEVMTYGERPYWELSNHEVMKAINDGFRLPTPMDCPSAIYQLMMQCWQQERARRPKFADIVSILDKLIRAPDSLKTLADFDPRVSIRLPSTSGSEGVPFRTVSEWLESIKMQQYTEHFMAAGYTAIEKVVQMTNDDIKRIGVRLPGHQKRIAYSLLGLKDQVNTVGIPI

[9] = biological target: Proto-oncogene tyrosine-protein kinase Src (Homo sapiens, UniProt P12931);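 also: SRC entry within a kinome-wide kinase profiling panel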
[10] = biological target: Mast/stem cell growth factor receptor Kit (Homo sapiens, UniProt P10721);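 also: KIT entry within a kinase panel assay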
[11] = biological target: MAP kinase-activated protein kinase 3 (Homo sapiens, UniProt Q16644);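 also: value comes from a kinome-wide profiling panel in which MAPKAPK3 is one of the panel members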
MAP kinase-activated protein kinase 3, sequence (Q16644 whole entry): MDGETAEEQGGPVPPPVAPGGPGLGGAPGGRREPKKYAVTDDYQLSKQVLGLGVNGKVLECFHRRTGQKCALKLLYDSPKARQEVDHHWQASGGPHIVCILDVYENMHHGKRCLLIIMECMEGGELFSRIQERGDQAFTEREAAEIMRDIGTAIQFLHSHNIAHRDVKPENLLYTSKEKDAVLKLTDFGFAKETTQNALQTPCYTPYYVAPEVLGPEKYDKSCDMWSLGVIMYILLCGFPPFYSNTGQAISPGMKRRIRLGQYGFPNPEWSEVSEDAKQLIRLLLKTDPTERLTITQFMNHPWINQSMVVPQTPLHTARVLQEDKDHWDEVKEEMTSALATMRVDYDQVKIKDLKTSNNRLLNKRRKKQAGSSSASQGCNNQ

[12] = biological target: Interleukin-1 receptor-associated kinase 4 (Homo sapiens, UniProt Q9NWZ3)
Interleukin-1 receptor-associated kinase 4, sequence (Q9NWZ3 whole entry): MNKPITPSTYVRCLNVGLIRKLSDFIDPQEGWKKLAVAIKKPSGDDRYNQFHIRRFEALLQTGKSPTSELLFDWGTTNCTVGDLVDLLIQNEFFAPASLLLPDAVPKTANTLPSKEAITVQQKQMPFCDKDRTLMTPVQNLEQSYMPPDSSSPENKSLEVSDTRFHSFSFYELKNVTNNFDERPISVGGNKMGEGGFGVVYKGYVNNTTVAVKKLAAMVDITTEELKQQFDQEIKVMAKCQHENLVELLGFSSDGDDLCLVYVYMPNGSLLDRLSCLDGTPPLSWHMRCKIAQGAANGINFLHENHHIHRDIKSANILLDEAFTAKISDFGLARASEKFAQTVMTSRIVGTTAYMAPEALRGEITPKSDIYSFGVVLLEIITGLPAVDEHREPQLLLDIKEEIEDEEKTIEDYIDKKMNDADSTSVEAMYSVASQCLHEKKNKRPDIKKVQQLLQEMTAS

[13] = biological target: Serine/threonine-protein kinase PLK1 (Homo sapiens, UniProt P53350);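 also: PLK1 measured as one member of a kinome-wide profiling panel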
[14] = biological target: RAC-alpha serine/threonine-protein kinase (Homo sapiens, UniProt P31749);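 also: AKT1 affinity measured as one member of a kinome-wide kinase profiling panel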
RAC-alpha serine/threonine-protein kinase, sequence (P31749 whole entry): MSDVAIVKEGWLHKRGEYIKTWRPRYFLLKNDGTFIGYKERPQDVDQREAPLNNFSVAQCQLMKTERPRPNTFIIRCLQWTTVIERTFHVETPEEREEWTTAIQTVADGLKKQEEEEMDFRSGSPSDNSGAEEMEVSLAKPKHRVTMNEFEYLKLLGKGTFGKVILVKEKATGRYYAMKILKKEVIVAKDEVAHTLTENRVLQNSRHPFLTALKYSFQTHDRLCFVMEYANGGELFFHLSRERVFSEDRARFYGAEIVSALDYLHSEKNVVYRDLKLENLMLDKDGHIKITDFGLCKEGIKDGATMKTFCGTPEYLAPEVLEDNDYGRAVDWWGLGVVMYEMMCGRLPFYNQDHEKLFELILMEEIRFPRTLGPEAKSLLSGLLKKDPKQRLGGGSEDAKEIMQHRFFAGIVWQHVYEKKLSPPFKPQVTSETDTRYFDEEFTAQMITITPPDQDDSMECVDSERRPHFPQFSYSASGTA

[15] = biological target: Serine/threonine-protein kinase BRSK1 (Homo sapiens, UniProt Q8TDC3);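 also: measured within a kinome-wide kinase panel, with the target listed as KIAA1811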
[16] = biological target: Protein kinase C iota type (Homo sapiens, UniProt P41743);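 also: measured within a kinome-wide kinase panel, PRKCI as panel member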
[17] = biological target: Insulin-like growth factor 1 receptor (Homo sapiens, UniProt P08069); assay: Navigating the Kinome. Panel member name: IGF1R
[18] = biological target: MAP/microtubule affinity-regulating kinase 3 (Homo sapiens, UniProt P27448);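 also: MARK3 affinity measured as one member of a kinome panel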
MAP/microtubule affinity-regulating kinase 3, sequence (P27448 whole entry): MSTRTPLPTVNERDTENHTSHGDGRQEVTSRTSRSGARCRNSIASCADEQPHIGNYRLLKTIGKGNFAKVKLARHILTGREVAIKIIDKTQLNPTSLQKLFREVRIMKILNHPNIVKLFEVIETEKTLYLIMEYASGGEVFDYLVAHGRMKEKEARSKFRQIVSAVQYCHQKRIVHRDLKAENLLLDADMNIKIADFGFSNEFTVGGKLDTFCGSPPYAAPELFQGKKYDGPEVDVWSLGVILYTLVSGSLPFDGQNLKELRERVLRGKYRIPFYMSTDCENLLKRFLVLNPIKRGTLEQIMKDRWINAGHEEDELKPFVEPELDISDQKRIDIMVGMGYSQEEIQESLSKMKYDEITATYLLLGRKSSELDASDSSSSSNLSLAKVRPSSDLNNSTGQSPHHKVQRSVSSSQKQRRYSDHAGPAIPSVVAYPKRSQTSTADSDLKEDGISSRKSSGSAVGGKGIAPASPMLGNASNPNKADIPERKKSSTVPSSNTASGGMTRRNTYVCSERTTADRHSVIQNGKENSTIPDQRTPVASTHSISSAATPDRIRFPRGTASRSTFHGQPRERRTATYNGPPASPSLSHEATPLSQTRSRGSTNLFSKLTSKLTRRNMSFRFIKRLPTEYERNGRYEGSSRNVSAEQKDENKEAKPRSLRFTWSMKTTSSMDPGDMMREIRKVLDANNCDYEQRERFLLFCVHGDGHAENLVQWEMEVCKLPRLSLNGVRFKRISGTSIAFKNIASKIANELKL

[19] = biological target: Misshapen-like kinase 1 (Homo sapiens, UniProt Q8N4C8);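 also: kinome panel screen with MINK as the panel member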
Misshapen-like kinase 1, sequence (Q8N4C8 whole entry): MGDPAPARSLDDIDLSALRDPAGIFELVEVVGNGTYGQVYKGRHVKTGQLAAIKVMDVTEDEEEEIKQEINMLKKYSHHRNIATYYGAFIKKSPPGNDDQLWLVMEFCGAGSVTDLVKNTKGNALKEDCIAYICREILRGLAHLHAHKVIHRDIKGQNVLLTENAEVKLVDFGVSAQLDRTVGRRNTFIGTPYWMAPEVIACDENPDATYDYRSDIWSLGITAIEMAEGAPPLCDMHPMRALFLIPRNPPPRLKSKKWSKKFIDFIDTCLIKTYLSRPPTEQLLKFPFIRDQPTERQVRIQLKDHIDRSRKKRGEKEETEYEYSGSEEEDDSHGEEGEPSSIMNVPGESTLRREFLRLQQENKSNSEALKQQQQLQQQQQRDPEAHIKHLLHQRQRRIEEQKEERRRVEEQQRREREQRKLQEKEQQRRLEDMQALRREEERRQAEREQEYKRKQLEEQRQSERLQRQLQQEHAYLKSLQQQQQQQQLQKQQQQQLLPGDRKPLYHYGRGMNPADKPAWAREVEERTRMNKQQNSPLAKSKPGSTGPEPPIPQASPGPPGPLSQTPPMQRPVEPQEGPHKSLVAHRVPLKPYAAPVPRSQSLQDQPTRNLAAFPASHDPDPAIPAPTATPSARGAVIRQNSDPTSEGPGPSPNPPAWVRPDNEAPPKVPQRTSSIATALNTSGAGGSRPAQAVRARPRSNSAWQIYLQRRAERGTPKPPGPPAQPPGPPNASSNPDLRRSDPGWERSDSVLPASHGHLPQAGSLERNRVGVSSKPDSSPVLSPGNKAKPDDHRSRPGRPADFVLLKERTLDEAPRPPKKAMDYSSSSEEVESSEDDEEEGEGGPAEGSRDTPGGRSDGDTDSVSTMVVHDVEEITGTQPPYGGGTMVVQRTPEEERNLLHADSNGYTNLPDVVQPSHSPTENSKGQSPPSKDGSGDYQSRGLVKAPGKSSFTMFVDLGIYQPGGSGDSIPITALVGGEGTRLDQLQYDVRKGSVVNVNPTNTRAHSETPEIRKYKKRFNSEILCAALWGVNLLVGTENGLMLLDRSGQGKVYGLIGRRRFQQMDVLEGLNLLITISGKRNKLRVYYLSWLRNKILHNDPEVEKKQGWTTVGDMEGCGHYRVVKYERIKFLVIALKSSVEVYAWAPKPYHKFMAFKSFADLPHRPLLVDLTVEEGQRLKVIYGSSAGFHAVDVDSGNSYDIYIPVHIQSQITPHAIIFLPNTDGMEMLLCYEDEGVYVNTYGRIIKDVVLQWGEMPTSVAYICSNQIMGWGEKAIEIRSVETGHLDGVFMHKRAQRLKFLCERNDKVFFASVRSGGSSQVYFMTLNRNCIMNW

[20] = biological target: Calcium/calmodulin-dependent protein kinase type II subunit gamma (Homo sapiens, UniProt Q13555)
[21] = biological target: Ribosomal protein S6 kinase beta-1 (Homo sapiens, UniProt P23443);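 also: measured as one member of a kinome-wide profiling panel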
[22] = biological target: Cell division cycle 7-related protein kinase (Homo sapiens, UniProt O00311);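 also: value obtained from a kinome-wide kinase panel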
[23] = biological target: cGMP-dependent protein kinase 1 (Homo sapiens, UniProt Q13976);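 also: value from a kinome panel screen with PRKG1 as the panel member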
[24] = biological target: G protein-coupled receptor kinase 5 (Homo sapiens, UniProt P34947); assay: Navigating the Kinome. Panel member name: GPRK5
[25] = biological target: LIM domain kinase 1 (Homo sapiens, UniProt P53667); assay: Navigating the Kinome. Panel member name: LIMK1
[26] = biological target: High affinity nerve growth factor receptor (Homo sapiens, UniProt P04629);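 also: NTRK1 tested as one member of a kinome-wide profiling panel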

SMILES: O=C1C2=[N+]([O-])[C@H]3CCCC[C@H]3[N+]([O-])=C2c2ccccc21
IC50 [1]: 5980 nM (active)
IC50 [2]: 2680 nM (active)
IC50 [3]: 15400 nM (active)

Ki [4]: 31.6 nM (active)
Ki [5]: 100 nM (active)
Ki [6]: 1580 nM (active)
Ki [7]: 251 nM (active)
Ki [8]: > 3160 nM (inactive)
Ki [9]: > 2000 nM (inactive)
Ki [10]: > 1260 nM (inactive)
Ki [11]: > 10000 nM (inactive)
Ki [12]: 50.1 nM (active)
Ki [13]: > 7940 nM (inactive)
Ki [14]: 1260 nM (active)
Ki [15]: 5010 nM (active)
Ki [16]: 31.6 nM (active)
Ki [17]: > 2000 nM (inactive)
Ki [18]: 50.1 nM (active)
Ki [19]: 251 nM (active)
Ki [20]: 3.98 nM (active)
Ki [21]: 501 nM (active)
Ki [22]: 5.01 nM (active)
Ki [23]: 100 nM (active)
SMILES: NC1CCC(Nc2nccc(-c3c[nH]c4ncccc34)n2)CC1 (stereo unspecified)

SMILES: COC(C(=O)N1Cc2[nH]nc(NC(=O)c3ccc(N4CCN(C)CC4)cc3)c2C1)c1ccccc1 (stereo unspecified)
Ki [24]: > 3980 nM (inactive)

Ki [25]: 15800 nM (active)
Ki [26]: 79400 nM (active)
SMILES: CC(C)(O)c1cn(-c2ccc3[nH]ncc3c2)nn1
